These results are taken from PMC12246728, “Efficient Oxidative Polymerization of Hydroxytyrosol Using Horseradish Peroxidase Immobilized on a Magnetic Silica‐Coated Nanocatalyst” (Global Challenges, 2025).

The subject of the test is T1, horseradish peroxidase (HRP).
T1 construct: gene PRXC1A
Description: initial rate by absorbance at […] nm, Lineweaver-Burk. Type of test: biochemical. The following applies: free enzyme; 1 mM H2O2, pH 7.0, 25 °C; HXT 0.5-5.0 mM.

With `OCCc1ccc(O)c(O)c1` [HXT, hydroxytyrosol], the Km turned out to be 4.45 mM.
